ChEMBL document CHEMBL4257566, “Design, synthesis and structure-based optimization of novel isoxazole-containing benzamide derivatives as FtsZ modulators” (Eur J Med Chem, 2018)
Converted amounts (≈) assume the structure as drawn.

Experiments:
Format in all cases: functional
Bacillus subtilis = assay: Antibacterial activity against Bacillus subtilis ATCC 9372 after 24 hrs by broth microdilution based CLSI method; conditions: ATCC 9372, 24 h
Bacillus pumilus = assay: Antibacterial activity against Bacillus pumilus CMCC63202 after 24 hrs by broth microdilution based CLSI method; conditions: CMCC63202, 24 h
Staphylococcus aureus [1] = assay: Antibacterial activity against Staphylococcus aureus ATCC 25923 after 24 hrs by broth microdilution based CLSI method; conditions: ATCC 25923, 24 h
Staphylococcus aureus [2] = assay: Antibacterial activity against methicillin-resistant Staphylococcus aureus ATCC 43300 after 24 hrs by broth microdilution based CLSI method; conditions: ATCC 43300, 24 h
Staphylococcus aureus [3] = assay: Antibacterial activity against clinical isolate of penicillin-resistant Staphylococcus aureus after 24 hrs by broth microdilution based CLSI method
Escherichia coli = assay: Antibacterial activity against Escherichia coli ATCC 25922 after 24 hrs by broth microdilution based CLSI method; conditions: ATCC 25922, 24 h
Pseudomonas aeruginosa = assay: Antibacterial activity against Pseudomonas aeruginosa ATCC 27853 after 24 hrs by broth microdilution based CLSI method; conditions: ATCC 27853, 24 h

| Compound | MIC (Bacillus subtilis) | MIC (Bacillus pumilus) | MIC (Staphylococcus aureus [1]) | MIC (Staphylococcus aureus [2]) | MIC (Staphylococcus aureus [3]) | MIC (Escherichia coli) | MIC (Pseudomonas aeruginosa) |
| --- | --- | --- | --- | --- | --- | --- | --- |
| COc1cc(-c2cc(COc3ccc(F)c(C(N)=O)c3F)on2)cc(OC)c1OC | > 64 µg/mL | > 64 µg/mL | > 64 µg/mL | > 64 µg/mL | > 64 µg/mL | > 64 µg/mL | > 64 µg/mL |
| NC(=O)c1c(F)ccc(OCc2cc(-c3ccccc3Cl)no2)c1F | 8 µg/mL (≈ 21.9 µM) | 16 µg/mL (≈ 43.9 µM) | > 64 µg/mL | > 64 µg/mL | > 64 µg/mL | > 64 µg/mL | > 64 µg/mL |
| CCCOc1ccc(-c2cc(COc3ccc(F)c(C(N)=O)c3F)on2)cc1 | 16 µg/mL (≈ 41.2 µM) | > 64 µg/mL | > 64 µg/mL | > 64 µg/mL | > 64 µg/mL | > 64 µg/mL | > 64 µg/mL |
| NC(=O)c1c(F)ccc(OCc2cc(-c3cccc(Cl)c3)on2)c1F | 8 µg/mL (≈ 21.9 µM) | > 64 µg/mL | > 64 µg/mL | > 64 µg/mL | > 64 µg/mL | > 64 µg/mL | > 64 µg/mL |
| NC(=O)c1c(F)ccc(OCc2cc(-c3ccc(Cl)cc3Cl)no2)c1F | 0.5 µg/mL (≈ 1.25 µM) | 0.5 µg/mL (≈ 1.25 µM) | 8 µg/mL (≈ 20 µM) | 4 µg/mL (≈ 10 µM) | > 64 µg/mL | > 64 µg/mL | > 64 µg/mL |
| NC(=O)c1c(F)ccc(OCc2cc(-c3ccc(Cl)cc3)on2)c1F | 64 µg/mL (≈ 175 µM) | > 64 µg/mL | > 64 µg/mL | > 64 µg/mL | > 64 µg/mL | > 64 µg/mL | > 64 µg/mL |
| COc1ccccc1-c1cc(COc2ccc(F)c(C(N)=O)c2F)on1 | > 64 µg/mL | > 64 µg/mL | > 64 µg/mL | > 64 µg/mL | > 64 µg/mL | > 64 µg/mL | > 64 µg/mL |
| NC(=O)c1c(F)ccc(OCc2cc(-c3ccc4c(c3)OCO4)no2)c1F | 4 µg/mL (≈ 10.7 µM) | > 64 µg/mL | > 64 µg/mL | > 64 µg/mL | > 64 µg/mL | > 64 µg/mL | > 64 µg/mL |
| COc1ccc(-c2cc(COc3ccc(F)c(C(N)=O)c3F)on2)cc1OC | > 64 µg/mL | > 64 µg/mL | > 64 µg/mL | > 64 µg/mL | > 64 µg/mL | > 64 µg/mL | > 64 µg/mL |
| NC(=O)c1c(F)ccc(OCc2cc(-c3ccc(Cl)c(Cl)c3)on2)c1F | > 64 µg/mL | > 64 µg/mL | > 64 µg/mL | > 64 µg/mL | > 64 µg/mL | > 64 µg/mL | > 64 µg/mL |
| CC(C)(C)c1ccc(-c2cc(CCOc3ccc(F)c(C(N)=O)c3F)no2)cc1 | > 64 µg/mL | > 64 µg/mL | > 64 µg/mL | > 64 µg/mL | > 64 µg/mL | > 64 µg/mL | > 64 µg/mL |
| N#Cc1ccc(-c2cc(COc3ccc(F)c(C(N)=O)c3F)on2)cc1 | 64 µg/mL (≈ 180 µM) | > 64 µg/mL | > 64 µg/mL | > 64 µg/mL | > 64 µg/mL | > 64 µg/mL | > 64 µg/mL |
| CCCCCc1ccc(-c2cc(COc3ccc(F)c(C(N)=O)c3F)on2)cc1 | 1 µg/mL (≈ 2.5 µM) | > 64 µg/mL | > 64 µg/mL | > 64 µg/mL | > 64 µg/mL | > 64 µg/mL | > 64 µg/mL |
| CCCOc1cccc(-c2cc(COc3ccc(F)c(C(N)=O)c3F)no2)c1 | 4 µg/mL (≈ 10.3 µM) | > 64 µg/mL | > 64 µg/mL | > 64 µg/mL | > 64 µg/mL | > 64 µg/mL | > 64 µg/mL |
| CC(C)(C)c1ccc(-c2onc(COc3ccc(F)c(C(N)=O)c3F)c2Br)cc1 | 1 µg/mL (≈ 2.15 µM) | 1 µg/mL (≈ 2.15 µM) | > 64 µg/mL | > 64 µg/mL | > 64 µg/mL | > 64 µg/mL | > 64 µg/mL |
| Cc1ccc(-c2cc(COc3ccc(F)c(C(N)=O)c3F)no2)cc1 | 64 µg/mL (≈ 186 µM) | > 64 µg/mL | > 64 µg/mL | > 64 µg/mL | > 64 µg/mL | > 64 µg/mL | > 64 µg/mL |

| Compound | MIC (Bacillus subtilis) | MIC (Bacillus pumilus) | MIC (Staphylococcus aureus [1]) | MIC (Staphylococcus aureus [2]) | MIC (Staphylococcus aureus [3]) | MIC (Escherichia coli) | MIC (Pseudomonas aeruginosa) |
| --- | --- | --- | --- | --- | --- | --- | --- |
| NC(=O)c1c(F)ccc(OCc2cc(-c3ccccc3)on2)c1F | 64 µg/mL (≈ 194 µM) | > 64 µg/mL | > 64 µg/mL | > 64 µg/mL | > 64 µg/mL | > 64 µg/mL | > 64 µg/mL |
| CCOc1cccc(-c2cc(COc3ccc(F)c(C(N)=O)c3F)no2)c1 | 32 µg/mL (≈ 85.5 µM) | > 64 µg/mL | > 64 µg/mL | > 64 µg/mL | > 64 µg/mL | > 64 µg/mL | > 64 µg/mL |
| CN(C)c1ccc(-c2cc(COc3ccc(F)c(C(N)=O)c3F)on2)cc1 | > 64 µg/mL | > 64 µg/mL | > 64 µg/mL | > 64 µg/mL | > 64 µg/mL | > 64 µg/mL | > 64 µg/mL |
| CCOc1ccc(-c2cc(COc3ccc(F)c(C(N)=O)c3F)no2)cc1 | > 64 µg/mL | > 64 µg/mL | > 64 µg/mL | > 64 µg/mL | > 64 µg/mL | > 64 µg/mL | > 64 µg/mL |
| NC(=O)c1c(F)ccc(OCc2cc(-c3ccc(C4CCCCC4)cc3)no2)c1F | > 64 µg/mL | > 64 µg/mL | > 64 µg/mL | > 64 µg/mL | > 64 µg/mL | > 64 µg/mL | > 64 µg/mL |
| Cc1ccc(-c2cc(COc3ccc(F)c(C(N)=O)c3F)on2)cc1 | 8 µg/mL (≈ 23.2 µM) | > 64 µg/mL | > 64 µg/mL | > 64 µg/mL | > 64 µg/mL | > 64 µg/mL | > 64 µg/mL |
| CCOc1ccc(-c2cc(COc3ccc(F)c(C(N)=O)c3F)on2)cc1 | 1 µg/mL (≈ 2.67 µM) | > 64 µg/mL | > 64 µg/mL | > 64 µg/mL | > 64 µg/mL | > 64 µg/mL | > 64 µg/mL |
| NC(=O)c1c(F)ccc(OCc2cc(-c3ccc(F)cc3)no2)c1F | 4 µg/mL (≈ 11.5 µM) | > 64 µg/mL | > 64 µg/mL | > 64 µg/mL | > 64 µg/mL | > 64 µg/mL | > 64 µg/mL |
| NC(=O)c1c(F)ccc(OCc2cc(-c3ccc(-c4ccccn4)cc3)no2)c1F | 64 µg/mL (≈ 157 µM) | > 64 µg/mL | > 64 µg/mL | > 64 µg/mL | > 64 µg/mL | > 64 µg/mL | > 64 µg/mL |
| NC(=O)c1c(F)ccc(OCc2cc(-c3ccc(Cl)cc3)no2)c1F | 4 µg/mL (≈ 11 µM) | > 64 µg/mL | > 64 µg/mL | > 64 µg/mL | > 64 µg/mL | > 64 µg/mL | > 64 µg/mL |
| NC(=O)c1c(F)ccc(OCc2cc(-c3cccs3)no2)c1F | 32 µg/mL (≈ 95.1 µM) | > 64 µg/mL | > 64 µg/mL | > 64 µg/mL | > 64 µg/mL | > 64 µg/mL | > 64 µg/mL |
| CCCCc1ccc(-c2cc(COc3ccc(F)c(C(N)=O)c3F)no2)cc1 | 0.06 µg/mL (≈ 0.155 µM) | > 64 µg/mL | > 64 µg/mL | > 64 µg/mL | > 64 µg/mL | > 64 µg/mL | > 64 µg/mL |
| CCCCOc1ccc(-c2cc(COc3ccc(F)c(C(N)=O)c3F)on2)cc1 | > 64 µg/mL | > 64 µg/mL | > 64 µg/mL | > 64 µg/mL | > 64 µg/mL | > 64 µg/mL | > 64 µg/mL |
| CC(C)c1ccc(-c2cc(COc3ccc(F)c(C(N)=O)c3F)on2)cc1 | 2 µg/mL (≈ 5.37 µM) | 32 µg/mL (≈ 85.9 µM) | > 64 µg/mL | > 64 µg/mL | > 64 µg/mL | > 64 µg/mL | > 64 µg/mL |
| Cc1c(COc2ccc(F)c(C(N)=O)c2F)noc1-c1ccc(C(C)(C)C)cc1 | 0.5 µg/mL (≈ 1.25 µM) | 1 µg/mL (≈ 2.5 µM) | > 64 µg/mL | > 64 µg/mL | > 64 µg/mL | > 64 µg/mL | > 64 µg/mL |
